Results published in patent US20240158446A1, “CYCLIC COMPOUND HAVING SELECTIVE INHIBITORY ACTION ON KRAS OVER HRAS AND NRAS” (CHUGAI SEIYAKU KABUSHIKI KAISHA, priority 2021, published 2024).

Key:
[1] = target: GDP-bound NRAS wild-type protein (Homo sapiens, UniProt P01111); experiment: Binding to NRAS by surface plasmon resonance (SPR), Single Cycle Kinetics; details: SPR, GDP-bound NRAS wild-type protein vs GDP-bound KRAS wild-type protein
[2] = target: GDP-bound HRAS wild-type protein (Homo sapiens, UniProt P01112); experiment: Binding to HRAS by surface plasmon resonance (SPR), Single Cycle Kinetics; details: SPR, GDP-bound HRAS wild-type protein vs GDP-bound KRAS wild-type protein
[3] = target: GDP-bound KRAS wild-type protein (Homo sapiens, UniProt P01116); experiment: Binding to KRAS by surface plasmon resonance (SPR), Single Cycle Kinetics; details: SPR, Single Cycle Kinetics, GDP-bound KRAS wild-type protein; read-out: KRAS KD
GDP-bound KRAS wild-type protein, sequence (P01116 whole entry): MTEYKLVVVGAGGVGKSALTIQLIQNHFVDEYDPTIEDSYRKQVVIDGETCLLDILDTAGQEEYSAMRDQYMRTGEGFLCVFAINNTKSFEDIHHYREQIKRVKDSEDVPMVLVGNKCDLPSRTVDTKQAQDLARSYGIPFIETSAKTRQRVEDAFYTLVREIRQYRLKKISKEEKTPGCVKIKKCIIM

GDP-bound NRAS wild-type protein, sequence (P01111 whole entry): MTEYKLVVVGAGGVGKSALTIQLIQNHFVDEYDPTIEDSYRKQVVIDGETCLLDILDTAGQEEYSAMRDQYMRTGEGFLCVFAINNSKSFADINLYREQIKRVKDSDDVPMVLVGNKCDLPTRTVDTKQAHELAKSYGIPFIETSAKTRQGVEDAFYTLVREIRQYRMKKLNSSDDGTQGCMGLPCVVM
GDP-bound HRAS wild-type protein, sequence (P01112 whole entry): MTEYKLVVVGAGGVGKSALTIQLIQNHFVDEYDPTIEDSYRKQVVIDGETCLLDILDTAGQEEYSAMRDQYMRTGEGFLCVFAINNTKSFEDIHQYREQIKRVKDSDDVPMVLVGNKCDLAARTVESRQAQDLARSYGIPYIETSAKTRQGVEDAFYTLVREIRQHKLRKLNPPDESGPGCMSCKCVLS

SMILES	NRAS/KRAS (ratio of KD value for NRAS to KD value for KRAS) [1]	HRAS/KRAS (ratio of KD value for HRAS to KD value for KRAS) [2]	Kd [3]
CCO[C@@H]1C[C@H]2C(=O)NC3(CCC3)C(=O)N(C)[C@@H](C3CCCC3)C(=O)N(C)[C@H](C(=O)N(C)C)CC(=O)N(C)[C@@H](COC)C(=O)N[C@@H]([C@@H](C)CC)C(=O)N(C)CC(=O)N(C)[C@H]3C/C=C\CCN(C3=O)[C@@H](Cc3ccc(C(F)(F)F)cc3)C(=O)N(C)CC(=O)N[C@@H](CCc3cc(F)c(C(F)(F)F)c(F)c3)C(=O)N2C1 [PP1113, (2S,8S,12R,14S,20S,23S,27S,30S,36S,38Z)-20-cyclopentyl-8-[2-[3,5-difluoro-4-(trifluoromethyl)phenyl]ethyl]-12-ethoxy-27-(methoxymethyl)-N,N,4,19,22,26,32,35-octamethyl-30-[(1S)-1-methylpropyl]-3,6,9,15,18,21,25,28,31,34,42-undecaoxo-2-[[4-(trifluoromethyl)phenyl]methyl]spiro[1,4,7,10,16,19,22,26,29,32,35-undecazatricyclo[34.5.1.0^10,14]dotetracont-38-ene-17,1′-cyclobutane]-23-carboxamide]	A (a compound having 10 or more and less than 20 is denoted as A)	A (a compound having 10 or more and less than 20 is denoted as A)	0.031 nM
C=CC[C@H]1C(=O)N[C@@H]([C@@H](C)CC)C(=O)N(C)CC(=O)N(C)[C@H]2C/C=C\CCN(C2=O)[C@@H](Cc2ccc(C(F)(F)F)cc2)C(=O)N(C)CC(=O)N[C@@H](CCc2cc(F)c(C(F)(F)F)c(F)c2)C(=O)N2C[C@H](OCC)C[C@H]2C(=O)NC2(CCC2)C(=O)N(C)[C@@H](C2CCCC2)C(=O)N(C)[C@H](C(=O)N(C)C)CC(=O)N1C [PP1114, (2S,8S,12R,14S,20S,23S,27S,30S,36S,38Z)-27-allyl-20-cyclopentyl-8-[2-[3,5-difluoro-4-(trifluoromethyl)phenyl]ethyl]-12-ethoxy-N,N,4,19,22,26,32,35-octamethyl-30-[(1S)-1-methylpropyl]-3,6,9,15,18,21,25,28,31,34,42-undecaoxo-2-[[4-(trifluoromethyl)phenyl]methyl]spiro[1,4,7,10,16,19,22,26,29,32,35-undecazatricyclo[34.5.1.0^10,14]dotetracont-38-ene-17,1′-cyclobutane]-23-carboxamide]	A (a compound having 10 or more and less than 20 is denoted as A)	A (a compound having 10 or more and less than 20 is denoted as A)	0.054 nM
C#CC[C@H]1C(=O)N[C@@H]([C@@H](C)CC)C(=O)N(C)CC(=O)N(C)[C@H]2C/C=C\CCN(C2=O)[C@@H](Cc2ccc(C(F)(F)F)cc2)C(=O)N(C)CC(=O)N[C@@H](CCc2cc(F)c(C(F)(F)F)c(F)c2)C(=O)N2C[C@H](OCC)C[C@H]2C(=O)NC2(CCC2)C(=O)N(C)[C@@H](C2CCCC2)C(=O)N(C)[C@H](C(=O)N(C)C)CC(=O)N1C [PP1115, (2S,8S,12R,14S,20S,23S,27S,30S,36S,38Z)-20-cyclopentyl-8-[2-[3,5-difluoro-4-(trifluoromethyl)phenyl]ethyl]-12-ethoxy-N,N,4,19,22,26,32,35-octamethyl-30-[(1S)-1-methylpropyl]-3,6,9,15,18,21,25,28,31,34,42-undecaoxo-27-prop-2-ynyl-2-[[4-(trifluoromethyl)phenyl]methyl]spiro[1,4,7,10,16,19,22,26,29,32,35-undecazatricyclo[34.5.1.0^10,14]dotetracont-38-ene-17,1′-cyclobutane]-23-carboxamide]	A (a compound having 10 or more and less than 20 is denoted as A)	A (a compound having 10 or more and less than 20 is denoted as A)	0.054 nM
CCO[C@@H]1C[C@H]2C(=O)NC3(CCC3)C(=O)N(C)[C@@H](C3CCCC3)C(=O)N(C)[C@H](C(=O)N(C)C)CC(=O)N(C)[C@@H](Cc3ccccc3)C(=O)N[C@@H]([C@@H](C)CC)C(=O)N(C)CC(=O)N(C)[C@H]3C/C=C\CCN(C3=O)[C@@H](Cc3ccc(C(F)(F)F)cc3)C(=O)N(C)CC(=O)N[C@@H](CCc3cc(F)c(C(F)(F)F)c(F)c3)C(=O)N2C1 [PP1116, (2S,8S,12R,14S,20S,23S,27S,30S,36S,38Z)-27-benzyl-20-cyclopentyl-8-[2-[3,5-difluoro-4-(trifluoromethyl)phenyl]ethyl]-12-ethoxy-N,N,4,19,22,26,32,35-octamethyl-30-[(1S)-1-methylpropyl]-3,6,9,15,18,21,25,28,31,34,42-undecaoxo-2-[[4-(trifluoromethyl)phenyl]methyl]spiro[1,4,7,10,16,19,22,26,29,32,35-undecazatricyclo[34.5.1.0^10,14]dotetracont-38-ene-17,1′-cyclobutane]-23-carboxamide]	A (a compound having 10 or more and less than 20 is denoted as A)	A (a compound having 10 or more and less than 20 is denoted as A)	0.069 nM
CCO[C@@H]1C[C@H]2C(=O)NC3(CCC3)C(=O)N(C)[C@@H](C3CCCC3)C(=O)N(C)[C@H](C(=O)N(C)C)CC(=O)N(C)[C@@H](CC(C)(C)C)C(=O)N[C@@H]([C@@H](C)CC)C(=O)N(C)CC(=O)N(C)[C@H]3C/C=C\CCN(C3=O)[C@@H](Cc3ccc(C(F)(F)F)cc3)C(=O)N(C)CC(=O)N[C@@H](CCc3cc(F)c(C(F)(F)F)c(F)c3)C(=O)N2C1 [PP1117, (2S,8S,12R,14S,20S,23S,27S,30S,36S,38Z)-20-cyclopentyl-8-[2-[3,5-difluoro-4-(trifluoromethyl)phenyl]ethyl]-27-(2,2-dimethylpropyl)-12-ethoxy-N,N,4,19,22,26,32,35-octamethyl-30-[(1S)-1-methylpropyl]-3,6,9,15,18,21,25,28,31,34,42-undecaoxo-2-[[4-(trifluoromethyl)phenyl]methyl]spiro[1,4,7,10,16,19,22,26,29,32,35-undecazatricyclo[34.5.1.0^10,14]dotetracont-38-ene-17,1′-cyclobutane]-23-carboxamide]	A (a compound having 10 or more and less than 20 is denoted as A)	A (a compound having 10 or more and less than 20 is denoted as A)	0.07 nM
CCO[C@@H]1C[C@H]2C(=O)NC3(CCC3)C(=O)N(C)[C@@H](C3CCCC3)C(=O)N(C)[C@H](C(=O)N(C)C)CC(=O)N(C)[C@@H](CSC)C(=O)N[C@@H]([C@@H](C)CC)C(=O)N(C)CC(=O)N(C)[C@H]3C/C=C\CCN(C3=O)[C@@H](Cc3ccc(C(F)(F)F)cc3)C(=O)N(C)CC(=O)N[C@@H](CCc3cc(F)c(C(F)(F)F)c(F)c3)C(=O)N2C1 [PP1119, (2S,8S,12R,14S,20S,23S,27R,30S,36S,38Z)-20-cyclopentyl-8-[2-[3,5-difluoro-4-(trifluoromethyl)phenyl]ethyl]-12-ethoxy-N,N,4,19,22,26,32,35-octamethyl-30-[(1S)-1-methylpropyl]-27-(methylsulfanylmethyl)-3,6,9,15,18,21,25,28,31,34,42-undecaoxo-2-[[4-(trifluoromethyl)phenyl]methyl]spiro[1,4,7,10,16,19,22,26,29,32,35-undecazatricyclo[34.5.1.0^10,14]dotetracont-38-ene-17,1′-cyclobutane]-23-carboxamide]	A (a compound having 10 or more and less than 20 is denoted as A)	A (a compound having 10 or more and less than 20 is denoted as A)	0.037 nM
CCO[C@@H]1C[C@H]2C(=O)NC3(CCC3)C(=O)N(C)[C@@H](C3CCCC3)C(=O)N(C)[C@H](C(=O)N(C)C)CC(=O)N(C)[C@@H](CC(F)F)C(=O)N[C@@H]([C@@H](C)CC)C(=O)N(C)CC(=O)N(C)[C@H]3C/C=C\CCN(C3=O)[C@@H](Cc3ccc(C(F)(F)F)cc3)C(=O)N(C)CC(=O)N[C@@H](CCc3cc(F)c(C(F)(F)F)c(F)c3)C(=O)N2C1 [PP1120, (2S,8S,12R,14S,20S,23S,27S,30S,36S,38Z)-20-cyclopentyl-27-(2,2-difluoroethyl)-8-[2-[3,5-difluoro-4-(trifluoromethyl)phenyl]ethyl]-12-ethoxy-N,N,4,19,22,26,32,35-octamethyl-30-[(1S)-1-methylpropyl]-3,6,9,15,18,21,25,28,31,34,42-undecaoxo-2-[[4-(trifluoromethyl)phenyl]methyl]spiro[1,4,7,10,16,19,22,26,29,32,35-undecazatricyclo[34.5.1.0^10,14]dotetracont-38-ene-17,1′-cyclobutane]-23-carboxamide]	A (a compound having 10 or more and less than 20 is denoted as A)	A (a compound having 10 or more and less than 20 is denoted as A)	0.042 nM
CCO[C@@H]1C[C@H]2C(=O)NC3(CCC3)C(=O)N(C)[C@@H](C3CCCC3)C(=O)N(C)[C@H](C(=O)N(C)C)CC(=O)N(C)[C@@H](CCC(F)F)C(=O)N[C@@H]([C@@H](C)CC)C(=O)N(C)CC(=O)N(C)[C@H]3C/C=C\CCN(C3=O)[C@@H](Cc3ccc(C(F)(F)F)cc3)C(=O)N(C)CC(=O)N[C@@H](CCc3cc(F)c(C(F)(F)F)c(F)c3)C(=O)N2C1 [PP1121, (2S,8S,12R,14S,20S,23S,27S,30S,36S,38Z)-20-cyclopentyl-27-(3,3-difluoropropyl)-8-[2-[3,5-difluoro-4-(trifluoromethyl)phenyl]ethyl]-12-ethoxy-N,N,4,19,22,26,32,35-octamethyl-30-[(1S)-1-methylpropyl]-3,6,9,15,18,21,25,28,31,34,42-undecaoxo-2-[[4-(trifluoromethyl)phenyl]methyl]spiro[1,4,7,10,16,19,22,26,29,32,35-undecazatricyclo[34.5.1.0^10,14]dotetracont-38-ene-17,1′-cyclobutane]-23-carboxamide]	A (a compound having 10 or more and less than 20 is denoted as A)	A (a compound having 10 or more and less than 20 is denoted as A)	0.049 nM
